Laboratory results taken from patent US20180271823A1, “SULFUR-BASED BROAD SPECTRUM ANTIVIRALS” (priority 2017, published 2018).
pEC50: −log10 of the molar value.

Tests used:
[1] = test system: some paramyxoviruses and pneumoviruses; conditions: cited from earlier work
[2] = test system: pseudotyped NiV/VSV virus (pNiV); type: cell-based, Nipah virus
NiV F protein = NiV F protein (Nipah virus, UniProt Q9IH63)
[3] = test system: 293T cells transfected with NiV F and G; type: cell-based
[4] = test system: bovine rotavirus strain NCDV; assay: Rotavirus infection assay in MA104 cells; type: cell-based
[5] = test system: vesicular stomatitis virus (VSV); type: cell-based
[6] = test system: Human respiratory syncytial virus (RSV A2 strain); assay: Plaque assay for RSV infections; type: cell-based
NiV G glycoprotein = NiV G glycoprotein (Nipah virus, UniProt Q9IH62)
pNiV viral membrane [7] = test system: pNiV viral membrane; design: species or system NiV
HSV-1 KOS = type: cell-based
Influenza virus = type: cell-based
Vero cells = assay: Cytotoxicity / cell viability assay (CCK-8)
pNiV viral membrane [8] = test system: pNiV viral membrane; design: species or system NiV; remark: listed apart in the source
[9] = test system: NiV F and G glycoproteins; type: cell-based
[10] = molecular target: NiV F and NiV G on pseudotyped NiV virions (Nipah virus, UniProt Q9IH62+Q9IH63)

NiV F protein, sequence (Q9IH63 110-546 limits assumed): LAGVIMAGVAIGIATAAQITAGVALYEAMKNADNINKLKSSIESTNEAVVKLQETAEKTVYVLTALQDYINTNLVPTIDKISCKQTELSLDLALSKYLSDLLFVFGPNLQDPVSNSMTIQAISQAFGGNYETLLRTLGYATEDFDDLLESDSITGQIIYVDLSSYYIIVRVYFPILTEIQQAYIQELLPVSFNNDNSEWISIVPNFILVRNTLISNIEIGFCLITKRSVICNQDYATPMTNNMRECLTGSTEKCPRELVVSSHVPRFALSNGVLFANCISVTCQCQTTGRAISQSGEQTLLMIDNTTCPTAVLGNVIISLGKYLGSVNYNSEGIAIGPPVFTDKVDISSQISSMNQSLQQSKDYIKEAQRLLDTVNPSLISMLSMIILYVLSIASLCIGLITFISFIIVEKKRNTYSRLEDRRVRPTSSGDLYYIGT
NiV F protein, sequence (Q9IH63 27-109 limits assumed): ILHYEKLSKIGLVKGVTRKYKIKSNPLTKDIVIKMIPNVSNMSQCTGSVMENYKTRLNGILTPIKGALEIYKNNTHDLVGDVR
NiV G glycoprotein, sequence (Q9IH62 whole entry, looked up): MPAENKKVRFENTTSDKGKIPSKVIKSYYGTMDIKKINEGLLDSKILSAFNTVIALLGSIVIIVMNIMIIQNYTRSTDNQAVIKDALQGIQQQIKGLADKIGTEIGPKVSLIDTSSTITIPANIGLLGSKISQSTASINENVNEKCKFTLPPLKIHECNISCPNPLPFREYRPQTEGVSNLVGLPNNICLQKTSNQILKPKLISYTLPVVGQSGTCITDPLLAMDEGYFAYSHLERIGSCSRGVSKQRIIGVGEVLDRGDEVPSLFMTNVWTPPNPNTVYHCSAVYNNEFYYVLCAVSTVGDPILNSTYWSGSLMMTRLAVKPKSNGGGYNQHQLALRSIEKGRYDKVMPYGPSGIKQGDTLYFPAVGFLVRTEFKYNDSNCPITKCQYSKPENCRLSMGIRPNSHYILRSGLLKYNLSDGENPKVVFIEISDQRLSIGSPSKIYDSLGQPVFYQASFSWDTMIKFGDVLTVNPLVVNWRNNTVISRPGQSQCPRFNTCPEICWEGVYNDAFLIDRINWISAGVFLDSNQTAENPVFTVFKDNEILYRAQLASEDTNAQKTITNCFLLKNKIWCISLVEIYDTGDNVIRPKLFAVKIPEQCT

Q: With `C1COCCN1.COc1ccc(P(=S)(S)N2CCOCC2)cc1` (centres unmarked) [GYY4137] as the molecule, how does the pEC50 [1] read?
A: 2.00

Q: For `COC(=O)C(CSC(C)=O)NC(=O)c1ccccc1` (centres unmarked) [XM-11], which inhibitory properties [2] is on record?
A: high inhibitory properties

Q: Which inhibitory properties [2] does the source give for `COC(=O)C(CSSC(C)=O)NC(=O)c1ccccc1` (centres unmarked) [XM-03] here?
A: high inhibitory properties

Q: Which inhibitory properties [2] does the source give for `CC(=O)NC(CSSC(=O)c1ccccc1)C(=O)NCc1ccccc1` (centres unmarked) [XM-02] here?
A: high inhibitory properties

Q: Which inhibitory properties [2] does the source give for `COC(=O)C(CSC(=O)c1ccccc1)NC(=O)c1ccccc1` (centres unmarked) [XM-10] here?
A: high inhibitory properties

Q: For `COC(=O)C(CSSC(=O)c1ccccc1)NC(=O)c1ccccc1` (centres unmarked) [XM-01], which NiV-F protein triggering (NiV F protein) is on record?
A: not decreased

Q: And the “cell to cell fusion” value [3]?
A: inhibit cell to cell fusion

Q: What about the non-enveloped rotavirus infection [4] of the same molecule?
A: no significant inhibition

Q: What about the VSV infection [5] of the same molecule?
A: inhibited

Q: What about the RSV infection [6] of the same molecule?
A: inhibited

Q: And the “ephrinB2 receptor binding ability of NiV G” value (NiV G glycoprotein)?
A: did not interfere

Q: And the “RNA spill from virions (TEM)” value (pNiV viral membrane [7])?
A: RNA spilled more frequently

Q: What about the “viral membrane appearance (TEM)” value (pNiV viral membrane [7]) of the same molecule?
A: compromised viral membrane

Q: What about the HSV-1 plaque formation (HSV-1 KOS) of the same molecule?
A: inhibit HSV-1 plaque formation in a concentration-dependent fashion

Q: What about the Influenza virus infection (Influenza virus) of the same molecule?
A: inhibited

Q: What about the cytotoxicity (Vero cells; 1, 3, and 10 μM) of the same molecule?
A: low cytotoxicity

Q: What about the “difference between inhibitory and cytotoxic concentrations” value (Vero cells; EC50 pNiV vs CC50) of the same molecule?
A: ~3 log

Q: And the CC50 (Vero cells; Vero cells, 1 μM-1 mM, calculated using Graphpad Prism)?
A: ~1 mM

Q: And the “ratio of excimer to monomer (membrane fluidity)” value (pNiV viral membrane [8])?
A: considerably lower ratio of excimers to monomers

Q: And the “protein G or F expression on cell surfaces” value [9]?
A: neither XM-01 at 10 μM nor LJ001 at 1 μM significantly affect

Q: And the “capability of treated virions to infect Vero cells” value [2]?
A: highly inhibited

Q: And the “inhibition when added after infection (time of addition)” value [2]?
A: completely incapable of inhibiting the virus

Q: And the “inhibitory activity in the absence of light” value [2]?
A: did not need light to inhibit pNiV infections

Q: And the inhibitory properties [2]?
A: high inhibitory properties

Q: And the “potency as antiviral inhibitor compared with NaHS or GYY4137” value [2]?
A: much more potent

Q: What about the “viral infection of pretreated cells” value [2] of the same molecule?
A: did not significantly reduce viral infection

Q: And the inhibition of infectivity ([2]; 10 μM)?
A: high inhibition of infectivity

Q: And the pEC50 ([2]; read-out: EC50 (inhibitory concentration, pNiV system))?
A: ~6.00

Q: What about the “glycoprotein conformations (antibody binding to NiV F or NiV G)” value [10] of the same molecule?
A: no significant changes in antibody binding
